Data as given in patent publication US20110263425A1, “HERBICIDAL COMPOSITION AND METHOD OF USE THEREOF” (SYNGENTA CROP PROTECTION, INC., priority 2007, published 2011).

How the values were obtained:
Set-up in all cases: key to Synergy (actual significantly higher than expected): *indicates synergy
Settings in all cases: for Weed control, Actual: tank mixture
[1] = tested on: large crabgrass (Digitaria sanguinalis); assay: Glasshouse trial, control of large crabgrass, mesotrione and atrazine applied post-emergence; type: in vivo
Description: (§1) A glasshouse trial was carried out. Large crabgrass seeds were sown into standard glasshouse potting mix (1:1 v/v Promix:Vero sand soil) contained in 10 cm square plastic pots. Treatments were replicated three times. Mesotrione (in the form Callisto® 480SE) was applied post-emergence to large crabgrass (Digitaria sanguinalis) at either 12 g ai/ha or 24 g ai/ha with or without atrazine (in the form […]®. When used, atrazine was applied at a rate of 140 g ai/ha or 280 g ai/ha. The adjuvant system was X-77 at 0.1% v/v in deionised water. 200 litres of herbicide/adjuvant system was used per hectare. General weed control was evaluated at 7 and 14 days after treatment (DAT). It is noted that all herbicides were applied at reduced field rates because herbicide effects are magnified in a glasshouse environment. Rates were chosen to give a 50 to 70% level of control with herbicides applied alone as this allows for detection of any synergistic effect when tank mixtures are used. The results were evaluated using the Colby formula. The expected result for (A+B) is (A+B)-(A×B/100) where A and B are the 'observed' results for A and B on their own.

large crabgrass = assay: Glasshouse trial, control of large crabgrass, mesotrione and atrazine applied pre-emergence; type: in vivo, Digitaria sanguinalis
Description: as §1, with “own. […] A glasshouse trial was carried out as described in Example 1, but the herbicidal composition was applied pre-emergence, and higher rates of atrazine were used.” for “own.”

[2] = tested on: white clover (Trifolium repens); assay: Glasshouse trial, control of white clover, mesotrione and atrazine applied post-emergence; type: in vivo
Description: [The source words this procedure for another organism and says it was used here with some conditions changed.] as §1, with “own. […] A glasshouse trial was carried out as described in Example 1, but the herbicidal composition was applied to white clover (Trifolium repens) instead of large crabgrass, and higher rates of mesotrione were used.” for “own.”

[3] = atrazine 140 g ai/ha plus mesotrione at 12 g ai/ha
[4] = atrazine 140 g ai/ha plus mesotrione at 24 g ai/ha
[5] = atrazine 280 g ai/ha plus mesotrione at 12 g ai/ha
[6] = atrazine 280 g ai/ha plus mesotrione at 24 g ai/ha
[7] = atrazine 560 g ai/ha plus mesotrione at 12 g ai/ha
[8] = atrazine 560 g ai/ha plus mesotrione at 24 g ai/ha
[9] = atrazine 140 g ai/ha plus mesotrione at 50 g ai/ha
[10] = atrazine 140 g ai/ha plus mesotrione at 100 g ai/ha
[11] = atrazine 280 g ai/ha plus mesotrione at 50 g ai/ha
[12] = atrazine 280 g ai/ha plus mesotrione at 100 g ai/ha

SMILES: CCNc1nc(Cl)nc(NC(C)C)n1 [Atrazine, 6-chloro-N-ethyl-N-isopropyl-1,3,5-triazine-2,4-diamine]
- Synergy (actual significantly higher than expected) [1, 3]: *
- Weed control, Expected (Colby formula) [1, 3]: 37%
- Weed control, Actual [1, 3]: 48%
- Synergy (actual significantly higher than expected) [1, 4]: *
- Weed control, Expected (Colby formula) [1, 4]: 68%
- Weed control, Actual [1, 4]: 78%
- Synergy (actual significantly higher than expected) [1, 5]: *
- Weed control, Expected (Colby formula) [1, 5]: 37%
- Weed control, Actual [1, 5]: 62%
- Synergy (actual significantly higher than expected) [1, 6]: *
- Weed control, Expected (Colby formula) [1, 6]: 68%
- Weed control, Actual [1, 6]: 77%
- Synergy (actual significantly higher than expected) (large crabgrass; [5]): *
- Weed control, Expected (Colby formula) (large crabgrass; [5]): 68%
- Weed control, Actual (large crabgrass; [5]): 75%
- Weed control, Expected (Colby formula) (large crabgrass; [6]): 97%
- Weed control, Actual (large crabgrass; [6]): 87%
- Synergy (actual significantly higher than expected) (large crabgrass; [7]): *
- Weed control, Expected (Colby formula) (large crabgrass; [7]): 60%
- Weed control, Actual (large crabgrass; [7]): 90%
- Weed control, Expected (Colby formula) (large crabgrass; [8]): 96%
- Weed control, Actual (large crabgrass; [8]): 98%
- Weed control, Expected (Colby formula) [2, 9]: 58%
- Weed control, Actual [2, 9]: 57%
- Synergy (actual significantly higher than expected) [2, 10]: *
- Weed control, Expected (Colby formula) [2, 10]: 68%
- Weed control, Actual [2, 10]: 80%
- Weed control, Expected (Colby formula) [2, 11]: 74%
- Weed control, Actual [2, 11]: 73%
- Synergy (actual significantly higher than expected) [2, 12]: *
- Weed control, Expected (Colby formula) [2, 12]: 80%
- Weed control, Actual [2, 12]: 88%
